According to patent US12054510B2, “2′ and/or 5′ amino-acid ester phosphoramidate 3′-deoxy adenosine derivatives as anti-cancer compounds” (Nucana plc, priority 2014, dated 2024):

Key:
CEM (TdT+ve) = experiment: ATP ViaLight plus cell viability assay; format: cell-based, Human; settings: for (FD) fold difference compared to control: CEM
Method: (§1) Certain compounds of the invention were subjected to further studies to test the cytotoxic activity of certain compounds of the invention and also to measure their activity against 4 haematological cancer cell lines • TdT positive CEM (Human ALL) • TdT negative K562 (Human CML) • TdT negative H1-60 (Human ANLL) • RL (CRL-2261) non-HD lymphoma • The concentrations of the active metabolite dATP (Cordycepin triphosphate) in these cell lines was also measured. • The cytotoxic activity and the intracellular 3′-dATP concentrations were also studied in the presence of hENT1, Adenosine Kinase (AK) and Adenosine Deaminase pharmacological inhibitors in CEM and RL cancer cell lines. Said inhibitors that mimic known cancer resistance mechanisms. Methods Cell Culture
(§2) HL-60, K562, CCRF-CEM and RL cell lines were cultured in RPMI-1640 medium (Sigma Aldrich, UK), which were supplemented with 10% Fetal Bovine Serum (FBS) (PAA Laboratories), 1% amphotericin B (5.5 ml) and 1% penicillin/streptomycin (5.5 ml) (PAA Laboratories) and grown in flasks at 37° C. incubator with 5% CO2.
(§3) The amount of ATP was used as a measurement of cell number and cell viability. ATP ViaLight™ plus assay kit (Lonza, USA: Product No. LT07-121) to detect ATP in cells treated in luminescence compatible 96 well plates (initial concentration of cells was 1×10^4 cells/well) with cordycepin and ProTides at concentrations of: 0, 0.1, 0.5, 1, 5 and 10 μM, followed by incubation for 72 hours at 37° C. incubator with 5% CO2. For inhibitor studies, 10 μM of NBTI or 1 μM EHNA or A-134974 was added and left for 5 minutes before adding the drugs (see section 5 for inhibitor details).
(§4) After incubation, 50 μl of cell lysis reagent was added to the 96 well plates to release the intracellular ATP, followed by 100 μl of ATP monitoring reagent (AMR). The luminescent values of each well were determined using FLUOstar OPTIMA microplate reader (BMG Labtech) which convert ATP into light by using luciferase enzyme. Therefore, the amount of luminescence produced was directly proportional to the amount of ATP.
(§5) Cell lines were treated in the same way as described above but before treatment with drugs, a number of inhibitors were added: • 1) Nitrobenzylthioinosine (NBTI) (Sigma-Aldrich, St. Louis, MO, product # N2255) blocks nucleoside transporters • 2) EHNA hydrochloride (Sigma-Aldrich, St. Louis, MO, product # E114) blocks adenosine deaminase • 3) Adenosine kinase inhibitor A-134974 dihydrochloride hydrate (Sigma-Aldrich, St. Louis, MO, product # A2846): blocks adenosine kinase
(§6) The dose-response curves of cytotoxicity of the drugs was determined using non-linear regression analysis of percentage cell viability versus concentration and EC50 values were obtained. The intracellular assay was conducted in five replicates for each condition. Intracellular assay was determined using paired t test (two-tailed) analysis of 3′ ATP/ATP concentration and p-values were obtained. For all the analysis, Prism Software program (GraphPad Software) was used and Microsoft Powerpoint® 2013 was used to plot the results.

RL (CRL-2261) = experiment: ATP ViaLight plus cell viability assay; format: cell-based
Method: as §1, §2, §3, §4, §5, §6

K562 [1] = experiment: ATP ViaLight plus cell viability assay; format: cell-based, Human; settings: K562
Method: as §1, §2, §3, §4, §6

HL-60 [2] = experiment: ATP ViaLight plus cell viability assay; format: cell-based, Human; settings: HL-60
Method: as §1, §2, §3, §4, §6

KG-1 [3] = experiment: CellTiterGlo cell viability assay, initial screening; format: cell-based
Method: (§7) In vitro viability assays were performed to assess the effects of compounds on cell viability in 7 selected cell lines over 72 hr using the CellTiterGlo (CTG, Promega-G7573) assay. The tests were performed in duplicates with treatment of compounds at 9 points, 3.16 folds titration in 96 well plates over ˜72 hr. The compound starting concentrations were […]. Cell viability assay using CellTiterGlo in 96-well plate were performed. The compound treatment was 72 hrs, under standard growth conditions, and in duplicate. Compounds were dissolved to 40 mM with thawed […]. Compounds were serially diluted at 3.16 fold in thawed DMSO, and warmed to 37° C. before being dissolved in media (2 μl+200 μl). After compounds were dissolved in media (media was also warmed to 37° C.). Media containing compounds were warmed to 37° C. in incubator and then compounds in media were added to cell plates (50 μl+50 μl), in duplicates. The compounds final concentrations were from […] to 19.9 nM. All compound solubilities were checked and recorded again, then the plates were transferred to CO2 tissue culture incubator immediately and incubated for 3 days. DMSO final concentration is 0.5%.

CCRF-CEM = experiment: as above; format: cell-based
Method: as §7

K562 [4] = experiment: as above; format: cell-based; settings: 72 hr, Table II
Method: as §7

MCF-7 = experiment: as above; format: cell-based
Method: as §7

MOLT-4 [5] = experiment: as above; format: cell-based
Method: as §7

HL-60 [6] = experiment: as above; format: cell-based
Method: as §7

HepG2 = experiment: as above; format: cell-based; settings: HepG2; 72 hr; Table II
Method: as §7

BxPC-3-Luc = experiment: Solid tumour and haematological malignancy assay (CellTiterGlo); format: cell-based; settings: 72 hr, Table VII
Method: (§8) In vitro viability assay were performed to assess the effects of compounds on cell viability in selected cell lines over 72 hr using the CellTiterGlo (CTG, Promega-G7573) assay. The tests were performed in duplicates with treatment of compounds at 9 points, 3.16 folds titration in 96 well plates over ˜72 hr. The compound starting concentrations were 198 mM. Cell viability assay using CellTiterGlo in 96-well plate were performed. Compound treatment 72 hrs, standard growth conditions, duplicates. Compounds were dissolved to 40 mM with thawed […]. Compounds were serially diluted at 3.16 fold in thawed DMSO, and warmed to 37° C. before being dissolved in media (2 μl+200 μl). After compounds were dissolved in media, media containing compounds were warmed to 37° C. in incubator and then compounds in media were added to cell plates (50 μl+50 μl) in duplicates. The compounds' final concentrations were from 198M to 19.9 nM. All compound solubilities were checked and recorded again, then the plates were transferred to CO2 tissue culture incubator immediately and incubated for 3 days. DMSO final concentration is 0.5%.

KG-1 [7] = experiment: as above; format: cell-based
Method: as §8, with “The tests were performed in duplicates with treatment of compounds at 9 points, 3.16 folds titration in 96 well plates over ˜72 hr. The compound starting concentrations were 198 mM.” left out, “Compounds were serially diluted at 3.16 fold in thawed DMSO, and warmed to 37° C. before being dissolved in media (2 μl+200 μl).” left out, “The compounds' final concentrations were from 198M to 19.9 nM.” left out

HT29 = experiment: as above; format: cell-based
Method: as §8, with “The tests were performed in duplicates with treatment of compounds at 9 points, 3.16 folds titration in 96 well plates over ˜72 hr. The compound starting concentrations were 198 mM.” left out, “Compounds were serially diluted at 3.16 fold in thawed DMSO, and warmed to 37° C. before being dissolved in media (2 μl+200 μl).” left out, “The compounds' final concentrations were from 198M to 19.9 nM.” left out

CCRFCEM = experiment: as above; format: cell-based; settings: for Emax: Homo sapiens, CCRF-CEM, 72 h, read-out: MI %
Method: as §8, with “The tests were performed in duplicates with treatment of compounds at 9 points, 3.16 folds titration in 96 well plates over ˜72 hr. The compound starting concentrations were 198 mM.” left out, “Compounds were serially diluted at 3.16 fold in thawed DMSO, and warmed to 37° C. before being dissolved in media (2 μl+200 μl).” left out, “The compounds' final concentrations were from 198M to 19.9 nM.” left out

Jurkat = experiment: as above; format: cell-based; settings: 72 hr
Method: as §8

SW620 = experiment: as above; format: cell-based; settings: SW620; 72 hr
Method: as §8

Z138 = experiment: as above; format: cell-based; settings: 72 hr
Method: as §8

BxPC-3 = experiment: as above; format: cell-based; settings: 72 hr
Method: as §8

MCF7 = experiment: as above; format: cell-based; settings: Homo sapiens, MCF7, 72 h, read-out: MI %
Method: as §8, with “The tests were performed in duplicates with treatment of compounds at 9 points, 3.16 folds titration in 96 well plates over ˜72 hr. The compound starting concentrations were 198 mM.” left out, “Compounds were serially diluted at 3.16 fold in thawed DMSO, and warmed to 37° C. before being dissolved in media (2 μl+200 μl).” left out, “The compounds' final concentrations were from 198M to 19.9 nM.” left out

MOLT-4 [8] = experiment: as above; format: cell-based; settings: Homo sapiens, MOLT-4, 72 h, read-out: MI %
Method: as §8

NCI-H929 = experiment: as above; format: cell-based; settings: Homo sapiens, NCI-H929, 72 h, read-out: MI %
Method: as §8

RL = experiment: as above; format: cell-based; settings: Homo sapiens, 72 h, read-out: MI %
Method: as §8

## CCCCCOC(=O)[C@H](CC(C)C)NP(=O)(OC[C@@H]1C[C@@H](O)[C@H](n2cnc3c(N)ncnc32)O1)Oc1cccc2ccccc12 (mixture of isomers) [D, (2S)-pentyl 2-(((((2S,4R,5R)-5-(6-amino-9H-purin-9-yl)-4-hydroxytetrahydrofuran-2-yl)methoxy)(naphthalen-1-yloxy)phosphoryl)amino)-4-methylpentanoate]
CEM (TdT+ve); CEM (TdT+ve)
  (FD) fold difference compared to Cordycepin = Cordycepin IC50/ProTide IC50: 3
RL (CRL-2261)
  (FD) fold difference compared to Cordycepin = Cordycepin IC50/ProTide IC50: 5
K562 [1]
  (FD) fold difference compared to Cordycepin = Cordycepin IC50/ProTide IC50: 3
HL-60 [2]
  (FD) fold difference compared to Cordycepin = Cordycepin IC50/ProTide IC50: 2
KG-1 [3]; KG-1, 72 hr, Table II
  M.I. %: maximum percentage inhibition of cell viability: 100%
CCRF-CEM; CCRF-CEM, 72 hr, Table II
  M.I. %: maximum percentage inhibition of cell viability: 100%
K562 [4]
  M.I. %: maximum percentage inhibition of cell viability: 99%
MCF-7; MCF-7, 72 hr, Table II
  M.I. %: maximum percentage inhibition of cell viability: 100%
MOLT-4 [5]; MOLT-4, 72 hr, Table II
  M.I. %: maximum percentage inhibition of cell viability: 100%
HL-60 [6]; HL-60, 72 hr, Table II
  M.I. %: maximum percentage inhibition of cell viability: 100%
HepG2
  M.I. %: maximum percentage inhibition of cell viability: 99%

## CC(NP(=O)(OC[C@@H]1C[C@@H](O)[C@H](n2cnc3c(N)nc(Cl)nc32)O1)Oc1cccc2ccccc12)C(=O)OCc1ccccc1 (stereo in doubt) [S, (2R)-benzyl 2-((((2S,4R,5R)-5-(6-amino-2-chloro-9H-purin-9-yl)-4-hydroxytetrahydrofuran-2-yl)methoxy)(naphthalen-1-yloxy)phosphorylamino)propanoate]
BxPC-3-Luc
  MI %: 82.6%

## Nc1nc(Cl)nc2c1ncn2[C@@H]1O[C@H](CO)C[C@H]1O [2-Cl-cordycepin, 3′-deoxy-2-chloroadenosine, reference compound]
BxPC-3-Luc
  MI %: −1.3%

## Nc1ncnc2c1ncn2[C@@H]1O[C@H](COP(=O)(NCC(=O)OCc2ccccc2)Oc2ccccc2)C[C@H]1O (stereo partly drawn) [C, Benzyl 2-(((((2S,4R,5R)-5-(6-amino-9H-purin-9-yl)-4-hydroxytetrahydrofuran-2-yl)methoxy)(phenoxy)phosphoryl)amino)acetate]
KG-1 [7]; KG-1, 72 hr
  MI %: 102%
HT29; HT29, 72 hr
  MI %: 99%
CCRFCEM; CCRFCEM, 72 hr
  MI %: 100%
Jurkat
  MI %: 100%
SW620
  MI %: 100%
Z138
  MI %: 100%
BxPC-3
  MI %: 99%
KG-1 [3]; KG-1, 72 hr, Table II
  M.I. %: maximum percentage inhibition of cell viability: 65%
CCRF-CEM; CCRF-CEM, 72 hr, Table II
  M.I. %: maximum percentage inhibition of cell viability: 94%
K562 [4]
  M.I. %: maximum percentage inhibition of cell viability: 92%
MCF-7; MCF-7, 72 hr, Table II
  M.I. %: maximum percentage inhibition of cell viability: 87%
MOLT-4 [5]; MOLT-4, 72 hr, Table II
  M.I. %: maximum percentage inhibition of cell viability: 93%
HL-60 [6]; HL-60, 72 hr, Table II
  M.I. %: maximum percentage inhibition of cell viability: 82%
HepG2
  M.I. %: maximum percentage inhibition of cell viability: 59%

## CCCCCOC(=O)[C@H](CC(C)C)NP(=O)(OC[C@@H]1C[C@H](O)[C@H](n2cnc3c(N)nc(OC)nc32)O1)Oc1cccc2ccccc12 (some centres unmarked) [Compound M]
CCRFCEM
  Emax: 100%

## Nc1ncnc2c1ncn2[C@@H]1O[C@H](CO)C[C@H]1O [Cordycepin, 3′-deoxyadenosine, reference compound]
CEM (TdT+ve); AK
  (FD) fold difference compared to control: 3
CEM (TdT+ve); EHNA
  (FD) fold difference compared to control: −16
CEM (TdT+ve); NBTI
  (FD) fold difference compared to control: 5
Jurkat
  MI %: 20%
BxPC-3
  MI %: 22%
RL (CRL-2261); AK
  (FD) fold difference compared to control: 4
RL (CRL-2261); EHNA
  (FD) fold difference compared to control: 2
RL (CRL-2261); NBTI
  (FD) fold difference compared to control: 2
KG-1 [3]; human, 72 h
  M.I. %: maximum percentage inhibition of cell viability: 78%
CCRF-CEM; human, 72 h
  M.I. %: maximum percentage inhibition of cell viability: 12%
K562 [4]
  M.I. %: maximum percentage inhibition of cell viability: 88%
MCF-7; human, 72 h
  M.I. %: maximum percentage inhibition of cell viability: 78%
MOLT-4 [5]; human, 72 h
  M.I. %: maximum percentage inhibition of cell viability: 52%
HL-60 [6]; human, 72 h
  M.I. %: maximum percentage inhibition of cell viability: 88%
HepG2
  M.I. %: maximum percentage inhibition of cell viability: 66%

## COc1nc(N)c2ncn([C@@H]3O[C@H](COP(=O)(N[C@@H](C)C(=O)OCc4ccccc4)Oc4cccc5ccccc45)C[C@H]3O)c2n1 (stereo partly drawn) [K, (2S)-benzyl 2-((((2S,4R,5R)-5-(6-amino-2-methoxy-9H-purin-9-yl)-4-hydroxytetrahydrofuran-2-yl)methoxy)(naphthalen-1-yloxy)phosphorylamino)propanoate]
KG-1 [7]; Homo sapiens, KG-1, 72 h, read-out: MI %
  Emax: 99%
HT29; Homo sapiens, HT-29, 72 h, read-out: MI %
  Emax: 98%
MCF7
  Emax: 99%
CCRFCEM
  Emax: 102%
MOLT-4 [8]
  Emax: 104%
NCI-H929
  Emax: 102%
RL
  Emax: 104%
